Data taken from a compilation of properties of binary mixtures (doi:10.1007/s10953-010-9562-5).

Assay: xn = mol fraction of the nth substance listed
Conditions: 101 kPa

`CCCC[N+]1(C)CCCC1.O=S(=O)([N-]S(=O)(=O)C(F)(F)F)C(F)(F)F` + CC1COC(=O)O1 gave an electrical conductivity (293.15 K, x2 = 0.68) of 0.843 S/m, a viscosity (293.15 K, x2 = 0.68) of 12.36 mPa·s and an electrical conductivity (293.15 K, x2 = 0.74) of 0.884 S/m. It also gave a viscosity (293.15 K, x2 = 0.74) of 9.88 mPa·s, an electrical conductivity (293.15 K, x2 = 0.84) of 0.908 S/m and a viscosity (293.15 K, x2 = 0.84) of 6.05 mPa·s. For the same compound, the electrical conductivity (293.15 K, x2 = 0.89) was 0.853 S/m, the viscosity (293.15 K, x2 = 0.89) was 4.71 mPa·s and the electrical conductivity (293.15 K, x2 = 0.95) was 0.692 S/m. It also gave a viscosity (293.15 K, x2 = 0.95) of 3.65 mPa·s, an electrical conductivity (293.15 K, x2 = 0.97) of 0.582 S/m and an electrical conductivity (298.15 K, x2 = 0) of 0.364 S/m. It also gave a viscosity (298.15 K, x2 = 0) of 68.16 mPa·s, an electrical conductivity (298.15 K, x2 = 0.05) of 0.394 S/m and a viscosity (298.15 K, x2 = 0.05) of 56.05 mPa·s. The electrical conductivity (298.15 K, x2 = 0.11) was 0.425 S/m, the viscosity (298.15 K, x2 = 0.11) was 47.09 mPa·s and the electrical conductivity (298.15 K, x2 = 0.16) was 0.46 S/m. The viscosity (298.15 K, x2 = 0.16) was 40.44 mPa·s, the electrical conductivity (298.15 K, x2 = 0.21) was 0.497 S/m and the viscosity (298.15 K, x2 = 0.21) was 35.42 mPa·s. For the same compound, the electrical conductivity (298.15 K, x2 = 0.26) was 0.538 S/m, the viscosity (298.15 K, x2 = 0.26) was 31.51 mPa·s and the electrical conductivity (298.15 K, x2 = 0.47) was 0.73 S/m. For the same compound, the viscosity (298.15 K, x2 = 0.47) was 20.25 mPa·s, the electrical conductivity (298.15 K, x2 = 0.53) was 0.784 S/m and the viscosity (298.15 K, x2 = 0.53) was 17.72 mPa·s. For the same compound, the electrical conductivity (298.15 K, x2 = 0.58) was 0.839 S/m, the viscosity (298.15 K, x2 = 0.58) was 15.23 mPa·s and the electrical conductivity (298.15 K, x2 = 0.68) was 0.942 S/m. It also gave a viscosity (298.15 K, x2 = 0.68) of 10.56 mPa·s, an electrical conductivity (298.15 K, x2 = 0.74) of 0.982 S/m and a viscosity (298.15 K, x2 = 0.74) of 8.51 mPa·s. It also gave an electrical conductivity (298.15 K, x2 = 0.79) of 1 S/m, a viscosity (298.15 K, x2 = 0.79) of 6.74 mPa·s and an electrical conductivity (298.15 K, x2 = 0.84) of 0.997 S/m. For the same compound, the viscosity (298.15 K, x2 = 0.84) was 5.29 mPa·s, the electrical conductivity (298.15 K, x2 = 0.89) was 0.934 S/m and the viscosity (298.15 K, x2 = 0.89) was 4.14 mPa·s. The electrical conductivity (298.15 K, x2 = 0.95) was 0.757 S/m, the viscosity (298.15 K, x2 = 0.95) was 3.26 mPa·s and the electrical conductivity (298.15 K, x2 = 0.97) was 0.628 S/m. The electrical conductivity (303.15 K, x2 = 0) was 0.426 S/m, the viscosity (303.15 K, x2 = 0) was 54.05 mPa·s and the electrical conductivity (303.15 K, x2 = 0.05) was 0.458 S/m. For the same compound, the viscosity (303.15 K, x2 = 0.05) was 44.95 mPa·s, the electrical conductivity (303.15 K, x2 = 0.11) was 0.494 S/m and the viscosity (303.15 K, x2 = 0.11) was 38.15 mPa·s. The electrical conductivity (303.15 K, x2 = 0.16) was 0.532 S/m, the viscosity (303.15 K, x2 = 0.16) was 33.05 mPa·s and the electrical conductivity (303.15 K, x2 = 0.26) was 0.618 S/m. The viscosity (303.15 K, x2 = 0.26) was 26.04 mPa·s, the electrical conductivity (303.15 K, x2 = 0.32) was 0.666 S/m and the viscosity (303.15 K, x2 = 0.32) was 23.45 mPa·s. For the same compound, the electrical conductivity (303.15 K, x2 = 0.37) was 0.717 S/m, the viscosity (303.15 K, x2 = 0.37) was 21.15 mPa·s and the electrical conductivity (303.15 K, x2 = 0.47) was 0.828 S/m. For the same compound, the viscosity (303.15 K, x2 = 0.47) was 16.91 mPa·s, the electrical conductivity (303.15 K, x2 = 0.53) was 0.886 S/m and the viscosity (303.15 K, x2 = 0.53) was 14.85 mPa·s. It also gave an electrical conductivity (303.15 K, x2 = 0.58) of 0.944 S/m, a viscosity (303.15 K, x2 = 0.58) of 12.83 mPa·s and an electrical conductivity (303.15 K, x2 = 0.68) of 1.05 S/m. It also gave a viscosity (303.15 K, x2 = 0.68) of 9.03 mPa·s, an electrical conductivity (303.15 K, x2 = 0.79) of 1.11 S/m and a viscosity (303.15 K, x2 = 0.79) of 5.9 mPa·s. The electrical conductivity (303.15 K, x2 = 0.89) was 1.02 S/m, the viscosity (303.15 K, x2 = 0.89) was 3.7 mPa·s and the electrical conductivity (303.15 K, x2 = 0.95) was 0.826 S/m. It also gave a viscosity (303.15 K, x2 = 0.95) of 2.93 mPa·s, an electrical conductivity (303.15 K, x2 = 0.97) of 0.652 S/m and an electrical conductivity (308.15 K, x2 = 0) of 0.505 S/m. For the same compound, the viscosity (308.15 K, x2 = 0) was 44.38 mPa·s, the electrical conductivity (308.15 K, x2 = 0.05) was 0.54 S/m and the viscosity (308.15 K, x2 = 0.05) was 36.9 mPa·s. It also gave an electrical conductivity (308.15 K, x2 = 0.11) of 0.578 S/m, a viscosity (308.15 K, x2 = 0.11) of 31.36 mPa·s and an electrical conductivity (308.15 K, x2 = 0.16) of 0.619 S/m. For the same compound, the viscosity (308.15 K, x2 = 0.16) was 27.23 mPa·s, the electrical conductivity (308.15 K, x2 = 0.21) was 0.663 S/m and the viscosity (308.15 K, x2 = 0.21) was 24.11 mPa·s. For the same compound, the electrical conductivity (308.15 K, x2 = 0.26) was 0.711 S/m, the viscosity (308.15 K, x2 = 0.26) was 21.64 mPa·s and the electrical conductivity (308.15 K, x2 = 0.32) was 0.762 S/m. The viscosity (308.15 K, x2 = 0.32) was 19.59 mPa·s, the electrical conductivity (308.15 K, x2 = 0.42) was 0.872 S/m and the viscosity (308.15 K, x2 = 0.42) was 16.04 mPa·s. It also gave an electrical conductivity (308.15 K, x2 = 0.47) of 0.931 S/m, a viscosity (308.15 K, x2 = 0.47) of 14.35 mPa·s and an electrical conductivity (308.15 K, x2 = 0.53) of 0.992 S/m. The viscosity (308.15 K, x2 = 0.53) was 12.68 mPa·s, the electrical conductivity (308.15 K, x2 = 0.58) was 1.05 S/m and the viscosity (308.15 K, x2 = 0.58) was 11.01 mPa·s. The electrical conductivity (308.15 K, x2 = 0.63) was 1.11 S/m, the viscosity (308.15 K, x2 = 0.63) was 9.39 mPa·s and the electrical conductivity (308.15 K, x2 = 0.68) was 1.16 S/m. For the same compound, the viscosity (308.15 K, x2 = 0.68) was 7.85 mPa·s, the electrical conductivity (308.15 K, x2 = 0.74) was 1.2 S/m and the viscosity (308.15 K, x2 = 0.74) was 6.44 mPa·s. It also gave an electrical conductivity (308.15 K, x2 = 0.79) of 1.22 S/m, a viscosity (308.15 K, x2 = 0.79) of 5.2 mPa·s and an electrical conductivity (308.15 K, x2 = 0.84) of 1.2 S/m. The viscosity (308.15 K, x2 = 0.84) was 4.17 mPa·s, the electrical conductivity (308.15 K, x2 = 0.89) was 1.11 S/m and the viscosity (308.15 K, x2 = 0.89) was 3.34 mPa·s. It also gave an electrical conductivity (308.15 K, x2 = 0.95) of 0.892 S/m, a viscosity (308.15 K, x2 = 0.95) of 2.68 mPa·s and an electrical conductivity (308.15 K, x2 = 0.97) of 0.691 S/m. For the same compound, the electrical conductivity (313.15 K, x2 = 0) was 0.57 S/m, the viscosity (313.15 K, x2 = 0) was 35.76 mPa·s and the electrical conductivity (313.15 K, x2 = 0.05) was 0.611 S/m. The viscosity (313.15 K, x2 = 0.05) was 30.14 mPa·s, the electrical conductivity (313.15 K, x2 = 0.11) was 0.654 S/m and the viscosity (313.15 K, x2 = 0.11) was 25.92 mPa·s. The electrical conductivity (313.15 K, x2 = 0.16) was 0.701 S/m, the viscosity (313.15 K, x2 = 0.16) was 22.74 mPa·s and the electrical conductivity (313.15 K, x2 = 0.26) was 0.803 S/m. It also gave a viscosity (313.15 K, x2 = 0.26) of 18.29 mPa·s, an electrical conductivity (313.15 K, x2 = 0.37) of 0.916 S/m and a viscosity (313.15 K, x2 = 0.37) of 15.11 mPa·s. For the same compound, the electrical conductivity (313.15 K, x2 = 0.42) was 0.975 S/m, the viscosity (313.15 K, x2 = 0.42) was 13.68 mPa·s and the electrical conductivity (313.15 K, x2 = 0.53) was 1.1 S/m. The viscosity (313.15 K, x2 = 0.53) was 10.88 mPa·s, the electrical conductivity (313.15 K, x2 = 0.58) was 1.16 S/m and the viscosity (313.15 K, x2 = 0.58) was 9.5 mPa·s. For the same compound, the electrical conductivity (313.15 K, x2 = 0.63) was 1.21 S/m, the viscosity (313.15 K, x2 = 0.63) was 8.15 mPa·s and the electrical conductivity (313.15 K, x2 = 0.68) was 1.26 S/m. The viscosity (313.15 K, x2 = 0.68) was 6.87 mPa·s, the electrical conductivity (313.15 K, x2 = 0.74) was 1.29 S/m and the viscosity (313.15 K, x2 = 0.74) was 5.69 mPa·s. The electrical conductivity (313.15 K, x2 = 0.89) was 1.18 S/m, the viscosity (313.15 K, x2 = 0.89) was 3.02 mPa·s and the electrical conductivity (313.15 K, x2 = 0.95) was 0.946 S/m. It also gave a viscosity (313.15 K, x2 = 0.95) of 2.45 mPa·s, a viscosity (318.15 K, x2 = 0.11) of 21.73 mPa·s and a viscosity (318.15 K, x2 = 0.16) of 19.16 mPa·s. The viscosity (318.15 K, x2 = 0.21) was 17.18 mPa·s, the viscosity (318.15 K, x2 = 0.26) was 15.58 mPa·s and the viscosity (318.15 K, x2 = 0.32) was 14.22 mPa·s. It also gave a viscosity (318.15 K, x2 = 0.37) of 12.99 mPa·s, a viscosity (318.15 K, x2 = 0.42) of 11.81 mPa·s and a viscosity (318.15 K, x2 = 0.53) of 9.47 mPa·s. It also gave a viscosity (318.15 K, x2 = 0.58) of 8.3 mPa·s, a viscosity (318.15 K, x2 = 0.63) of 7.16 mPa·s and a viscosity (318.15 K, x2 = 0.68) of 6.06 mPa·s. The viscosity (318.15 K, x2 = 0.74) was 5.05 mPa·s, the viscosity (318.15 K, x2 = 0.79) was 4.16 mPa·s and the viscosity (318.15 K, x2 = 0.84) was 3.39 mPa·s. For the same compound, the viscosity (318.15 K, x2 = 0.95) was 2.26 mPa·s.
